Data from ChEMBL document CHEMBL4364293, “Design, Synthesis, and Structure-Activity Relationship of 7-Propanamide Benzoxaboroles as Potent Anticancer Agents” (J Med Chem, 2019).

What was measured:
[1] = test system: HCT-116; test: Antiproliferative activity against human HCT116 cells after 72 hrs by MTT assay; type: functional, cell-based; details: HCT-116, 72 h
[2] = test system: SK-OV-3; test: Antiproliferative activity against human SKOV3 cells after 72 hrs by MTT assay; type: functional, cell-based; details: SK-OV-3, 72 h
[3] = test system: MDA-MB-231; test: Antiproliferative activity against human MDA-MB-231 cells after 72 hrs by MTT assay; type: functional, cell-based; details: MDA-MB-231, 72 h
[4] = test system: WI-38; test: Cytotoxicity against human WI38 cells after 72 hrs by MTT assay; type: cell-based; details: WI-38, 72 h

| SMILES | IC50 [1] | IC50 [2] | IC50 [3] | IC50 [4] |
| --- | --- | --- | --- | --- |
| CCOC(=O)c1ccc(NC(=O)CCc2cccc3c2B(O)OC3)cc1 | > 100 µM | > 100 µM | > 100 µM | > 100 µM |
| O=C(CCc1cccc2c1B(O)OC2)NC1CCCCC1 | > 100 µM | > 100 µM | > 100 µM | > 100 µM |
| CC(C)(C)NC(=O)CCc1cccc2c1B(O)OC2 | > 100 µM | > 100 µM | > 100 µM | > 100 µM |
| O=C(CCc1cccc2c1B(O)OC2)Nc1ccc([N+](=O)[O-])cc1 | > 100 µM | 83 µM | 36 µM | > 100 µM |
| COc1cc(OC)cc(-c2cccc(NC(=O)CCc3ccccc3)c2)c1 | > 100 µM | > 100 µM | 87 µM | > 100 µM |
| CCNC(=O)CCc1cccc2c1B(O)OC2 | > 100 µM | > 100 µM | > 100 µM | > 100 µM |
| COc1ccc(NC(=O)CCc2cccc3c2B(O)OC3)cc1OC | > 100 µM | > 100 µM | > 100 µM | > 100 µM |
| CC(=O)c1ccc(-c2cccc(NC(=O)CCc3ccc4c(c3)COB4O)c2)cc1 | 63 µM | 79 µM | 66 µM | > 100 µM |
| OB1OCc2ccccc21 [BENZOXABOROLE] | > 100 µM | > 100 µM | > 100 µM | 58 µM |
| COc1cccc(-c2cccc(NC(=O)CCc3cccc4c3C(O)OC4)c2)c1 (centres undefined) | 49 µM | 61 µM | 52 µM | 93 µM |
| O=C(CCc1cccc2c1B(O)OC2)Nc1ccc(I)cc1 | 50 µM | 51 µM | 33 µM | 49 µM |
| O=C(CCc1cccc2c1B(O)OC2)Nc1nccs1 | > 100 µM | > 100 µM | > 100 µM | > 100 µM |
| Cc1cc(C)c(NC(=O)CCc2cccc3c2B(O)OC3)c(C)c1 | 64 µM | 19 µM | 71 µM | 74 µM |
| O=C(/C=C/c1cccc2c1B(O)OC2)Nc1ccccc1 | > 100 µM | > 100 µM | > 100 µM | > 100 µM |

Now those with a lower IC50 [1], led by results:

| IC50 [1] | IC50 [2] | IC50 [3] | SMILES | IC50 [4] |
| --- | --- | --- | --- | --- |
| 2.3 µM | 0.63 µM | 5.3 µM | O=C(CCc1cccc2c1B(O)OC2)Nc1cccc(I)c1 | 71 µM |
| 22 µM | 78 µM | 12 µM | O=C(CCc1cccc2c1C(O)OC2)Nc1ccccc1 (centres undefined) | 42 µM |
| 24 µM | > 100 µM | 29 µM | CC(C)(C)OC(=O)Nc1ccc(NC(=O)CCc2cccc3c2B(O)OC3)cc1 | > 100 µM |
| 0.2 µM | 0.17 µM | 0.15 µM | O=C(CCc1cccc2c1B(O)OC2)Nc1cccc2ccccc12 | 1.2 µM |
| 0.35 µM | 0.3 µM | 0.25 µM | O=C(CCc1cccc2c1B(O)OC2)Nc1cccc(-c2cccc(Cl)c2)c1 | 58 µM |
| 0.38 µM | 0.22 µM | 0.26 µM | O=C(CCc1cccc2c1B(O)OC2)Nc1cccc(-c2ccc(Cl)cc2)c1 | 9.8 µM |
| 13 µM | 48 µM | 8.8 µM | O=C(CCc1cccc2c1B(O)OC2)Nc1ccc(-c2ccccc2)cc1 | 32 µM |
| 12 µM | 5 µM | 3.6 µM | O=C(CCc1cccc2c1B(O)OC2)Nc1ccc(Cl)cc1 | > 100 µM |
| 0.11 µM | 0.15 µM | 0.15 µM | CSc1cccc(-c2cccc(NC(=O)CCc3cccc4c3B(O)OC4)c2)c1 | 2 µM |
| 4 µM | 3.2 µM | 2.7 µM | CC(=O)c1ccc(-c2cccc(NC(=O)CCc3ccccc3)c2)cc1 | 13 µM |
| 0.43 µM | 0.2 µM | 0.93 µM | COc1ccccc1NC(=O)CCc1cccc2c1B(O)OC2 | 1.6 µM |
| 0.023 µM | 0.032 µM | 0.0069 µM | COc1cccc2c1C(=O)c1c(O)c3c(c(O)c1C2=O)C[C@@](O)(C(=O)CO)C[C@@H]3O[C@H]1C[C@H](N)[C@H](O)[C@H](C)O1 [DOXORUBICIN] | 0.59 µM |
| 0.58 µM | 0.39 µM | 0.41 µM | O=C(CCc1cccc2c1B(O)OC2)Nc1cccc(-c2cccc(C(F)(F)F)c2)c1 | 23 µM |
| 2.3 µM | 2 µM | 1.3 µM | CC(C)(C)OC(=O)NCc1ccc(NC(=O)CCc2cccc3c2B(O)OC3)cc1 | 4.8 µM |
| 46 µM | 9.2 µM | 5.3 µM | O=C(CCc1cccc2c1B(O)OC2)Nc1ccc(Br)cc1 | 42 µM |
| 19 µM | > 100 µM | 59 µM | CC(=O)c1ccc(-c2cccc(NC(=O)CCc3ccc4c(c3)B(O)OC4)c2)cc1 | > 100 µM |
| 19 µM | 4.2 µM | 33 µM | CC(C)(C)c1ccc(NC(=O)CCc2cccc3c2B(O)OC3)cc1 | 55 µM |
